This note sets out measurements from patent publication US20250295668A1, “METHODS FOR INDUCING COLANIC ACID BIOSYNTHESIS” (priority 2024, published 2025).

Assay [1] concerns cps operon. Nature of the assay: Disk diffusion assay for cps induction, SG20781 cpsB::lacZ reporter. Format: cell-based, E. coli. The following applies: SG20781, filter paper disks 10 or 100 μg, 24 hours at 37° C. The protocol: For antibiotic screening targeting cps expression, the SG20781 strain (MC4100 lon+cpsB10::lacZ Mu-immλ) was used. The bacteria were cultured overnight at 37° C. in Luria-Broth (LB) medium and evenly plated on X-gal (40 μg/mL) supplemented LB agar plates, and incubated overnight.
E. coli strain SG20781 was used to assess antibiotic cps induction via disk diffusion as previously described [PMID: 14553918]. In brief, an overnight bacteria culture was spread onto LB agar containing 0.1 mg ml-1 5-bromo-4-chloro-3-indolyl-β-D-galactoside (X-gal). […] The soaked filter papers were placed onto the bacteria-seeding plates and incubated for 24 hours at 37° C.
Certain β-lactam antibiotics trigger the overexpression of the cps operon in E. coli [PMID: 14553918]. To validate this finding, a disk diffusion assay was performed using SG20781, an E. coli strain that harbors a LacZ reporter for the cps operon transcriptional regulation. Using a colorimetric assay, an increased level of […] reacts with X-gal, resulting in an intensified blue coloration as a result of the transcriptional up-regulation of the cps operon.
For orientation: A growth-free zone around the sample is the usual read-out of agar diffusion tests.

The subject of assay [2] is cps operon in commensal E. coli. Nature of the assay: cps G-R reporter bacteria from mouse ileum, in vivo imaging (GFP-to-RFP ratio). The settings on record: for increase in GFP-to-RFP ratio: oral gavage plus drinking water, 3 hours, ileum. Also on record: species or system C57BL6 mice.
Description: In vivo imaging: Co-housed female C57BL6 mice received cps G-R reporter E. coli at 1×10^8 CFU per 100 mL through distilled drinking water. The bacteria-containing water was prepared and replaced daily for three days continuously. […] Luminal content from the ileum was collected and processed for imaging bacteria from in vivo samples immediately after euthanasia as previously described [PMID: 34428120]. In brief, the ileum sections were collected and then finely minced by a pair of iris scissors in 2 mL 1×PBS. Samples were then vortexed for 1 minute and filtered with a sterile cell strainer (40 μm) to remove the tissue debris. The microbiota was washed 3 times with 1.5 mL PBS by centrifugation (15,000×g, 3 min) and then resuspended in 0.1 mL PBS for imaging.
The cps G-R reporter strain was introduced to wild-type C57B6 mice through drinking water, followed by cephaloridine administration through a single-dose oral gavage and cephaloridine-containing water for 3 hours, which allowed for sufficient intestinal transit time [PMID: 23915679] and E. coli turnover time [PMID: 26392213] for optimal dosing (FIG. 3E). […] The luminal content of mice ileum was harvested after 3 hours of cephaloridine administration and were imaged for fluorescence.

With `O=C(Cc1cccs1)N[C@@H]1C(=O)N2C(C(=O)[O-])=C(C[n+]3ccccc3)CS[C@H]12` [cephaloridine], the “cps induction (blue coloration)” value in assay [1] is given as “promote various shades of blue coloration”. In addition, the “cps operon induction in the mouse intestine” value in assay [2] (4 μg/mL dose) is reported as “induced the cps operon”; in assay [2] (8 μg/mL dose), “failed to exert this effect”. Besides, the results for the “increase in GFP-to-RFP ratio” value in assay [2] (4 μg/mL) and in assay [2] (8 μg/mL) were 13% and “no such increase”, respectively.
